“And” between values parts separate entries of the source, which are not always exact repeats. Identical values can stand only once.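 Briefly, cells in 96-well plates were exposed to five compound concentrations for 48 h, and endpoints were estimated by linear interpolation. GI50 is the concentration that inhibits growth by half. TGI denotes the concentration required for complete inhibition of growth.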
Key:
Test in all cases: NCI tumour cell line growth inhibition, 48 h
786-0 renal = tested on: 786-0 renal
A498 renal = tested on: A498 renal
HS 578T breast = tested on: HS 578T breast
KM12 colon = tested on: KM12 colon
MALME-3M melanoma = tested on: MALME-3M melanoma
NCI-H226 lung = tested on: NCI-H226 lung
OVCAR-8 ovarian = tested on: OVCAR-8 ovarian
SF-268 CNS = tested on: SF-268 CNS
T-47D breast = tested on: T-47D breast
UACC-62 melanoma = tested on: UACC-62 melanoma

| Structure (SMILES) | GI50 (786-0 renal) | TGI (786-0 renal) | GI50 (A498 renal) | TGI (A498 renal) | GI50 (HS 578T breast) | TGI (HS 578T breast) | GI50 (KM12 colon) | TGI (KM12 colon) | GI50 (MALME-3M melanoma) | TGI (MALME-3M melanoma) | GI50 (NCI-H226 lung) | TGI (NCI-H226 lung) | GI50 (OVCAR-8 ovarian) | TGI (OVCAR-8 ovarian) | GI50 (SF-268 CNS) | TGI (SF-268 CNS) | GI50 (T-47D breast) | TGI (T-47D breast) | GI50 (UACC-62 melanoma) | TGI (UACC-62 melanoma) |
| --- | --- | --- | --- | --- | --- | --- | --- | --- | --- | --- | --- | --- | --- | --- | --- | --- | --- | --- | --- | --- |
| Nc1ccccc1NC(=O)c1ccc(CN2CCC/C(=C\c3cccc(Cl)c3)C2=O)cc1 | 0.366 µM | 2.17 µM | 0.441 µM | 3.66 µM | 0.321 µM | > 100 µM | 0.378 µM | 13.4 µM | 1.59 µM | 16.4 µM | 2.01 µM | 7.06 µM | 0.334 µM | > 100 µM | 1.41 µM | 6.74 µM | 3.34 µM | 56.6 µM | 0.0517 µM | 14.6 µM |
| CN(C)CCCNc1nccc(-c2c(-c3ccc(F)cc3)nn3cc(C(F)(F)F)ccc23)n1 | 7.69 µM | > 25 µM | 6.53 µM | > 25 µM | 7.7 µM | > 25 µM | 8.3 µM | > 25 µM | 4.32 µM | 9.36 µM | 3.72 µM | 11.2 µM | > 20.1 µM | > 25 µM | 9.79 µM | > 25 µM | 12.5 µM | > 25 µM | 4.88 µM | 11.1 µM |
| Oc1cc(O)c2c(=S)cc(-c3ccc(Cl)cc3)oc2c1 | 7.12 µM | 22.9 µM | 1.22 µM | 11.7 µM | 3.56 µM | 40.3 µM | 2.08 µM | 11.5 µM | 2.01 µM | 6.71 µM | 4.97 µM | 32.5 µM | 3.3 µM | 14.9 µM | 3.23 µM | 21.3 µM | 0.0304 µM | 0.547 µM | 3.01 µM | 14.2 µM |
| COc1ccc(-c2nn(-c3cccc(NC(=O)Nc4cc(C(F)(F)F)cc(C(F)(F)F)c4)c3)cc2-c2ccncc2)cc1Cl | 0.976 µM | 2.74 µM | 0.507 µM | 3.17 µM | 1.17 µM | 5.52 µM | 1.09 µM | 4.17 µM | 1.23 µM | 4.2 µM | 1.33 µM | 6.35 µM | 1.13 µM | 22.5 µM | 1.59 µM | 8.68 µM | 1.07 µM | 7.17 µM | 0.948 µM | 3.11 µM |
| O=C1/C(=C/c2ccccc2)CCC/C1=C\c1ccccc1 | 6.62 µM | 11.9 µM and 25.9 µM and 27.1 µM | – | 29.8 µM and 29.2 µM | 43.2 µM | 28.1 µM and > 100 µM | 3.54 µM and 2.11 µM | 7.81 µM and 5.54 µM and 4.26 µM | 6.54 µM and 21 µM | 11.9 µM and 33.3 µM and 59.7 µM | 7.83 µM and 12.5 µM | 13.8 µM and 35.1 µM and 33 µM | 3.57 µM | 13.6 µM and 28.1 µM and 25.4 µM | 6.72 µM and 5.81 µM | 13.3 µM and 29.5 µM and 20.3 µM | 15.1 µM | 11.6 µM and 38.6 µM | 6.34 µM | 11.5 µM and 28.4 µM and 29.9 µM |
| C=CCN(/C=C1\C(=O)O[C@H](COC)[C@@]2(C)C1=C(O)C(=O)C1=C2[C@H](OC(C)=O)C[C@]2(C)C(=O)CC[C@@H]12)CC=C | – | 20 µM and 25.7 µM | 0.0671 µM and 0.049 µM | 2.73 µM and 1.26 µM | 0.173 µM and 0.025 µM | – | 0.979 µM and 2.19 µM | 20 µM and 46.4 µM | – | 5.5 µM and 8.3 µM | 0.364 µM and 1.16 µM | – | 10.2 µM and 3.09 µM | 20 µM and > 100 µM | 0.992 µM and 1.46 µM | 20 µM and > 100 µM | – | 20 µM and > 100 µM | 0.11 µM and 0.075 µM | 1.38 µM and 2.38 µM |
| COC(=O)[C@H](CC(C)C)NC(=O)NC(=O)NC(=O)CI | 3.02 µM | 11.5 µM | 17.7 µM | 32.6 µM | 24.3 µM | 77.4 µM | 15.8 µM | 32.8 µM | 1.62 µM | 3.43 µM | 2.95 µM | 10 µM | 5.69 µM | 18.4 µM | 11.3 µM | 29.1 µM | 2.28 µM | 7.03 µM | 13.4 µM | 28.2 µM |
| CC[CH2][Sn]([Cl])([Cl])[CH2]CC | 10.8 µM | 23 µM | 1.54 µM | 3.62 µM | 6.13 µM | 28.4 µM | 16 µM | 30.9 µM | 1.55 µM | 4.91 µM | 4.02 µM | 16.5 µM | 14.7 µM | 30.1 µM | 9.63 µM | 22.5 µM | 1.17 µM | 3.36 µM | 4.19 µM | 17.5 µM |
| CNC(C)C(=O)N[C@H](C(=O)N1CCC[C@@H]1CN(CCc1ccccc1)C(=O)C(F)(F)F)[C@H](C)OCC#CC#CCO[C@H](C)[C@H](NC(=O)[C@H](C)NC)C(=O)N1CCC[C@H]1CN(CCc1ccccc1)C(=O)C(F)(F)F (some centres undefined) | 1.65 µM | 3.25 µM | 1.03 µM | 2.61 µM | 1.55 µM | 3.65 µM | 1.71 µM | 3.25 µM | 0.0115 µM | 0.716 µM | 1.54 µM | 3.06 µM | 0.67 µM | 2.19 µM | 1.94 µM | 3.57 µM | 1.64 µM | 3.3 µM | 1.77 µM | 3.24 µM |
| CCOC(=O)C(=O)N=Nc1nc2c(O)c3ccccc3c(O)c2s1 | – | 22.8 µM | – | 38.2 µM | – | 10.5 µM | – | 20.8 µM | – | 3.48 µM | – | 30.2 µM | – | 5.12 µM | – | 10.8 µM | – | 35.8 µM | – | 11.5 µM |
| O=C1C(Cl)=C(Nc2cccc(O)c2)C(=O)N1c1ccc(Cl)c(Cl)c1 | 17.7 µM | 35.3 µM | 12.1 µM | 28.7 µM | 20.5 µM | 54.3 µM | 17 µM | 32.5 µM | 19.7 µM | 55 µM | 19.7 µM | 46.6 µM | 23.6 µM | 52.2 µM | 23.8 µM | 62.3 µM | 41 µM | > 100 µM | 27.6 µM | > 100 µM |
| COc1ccc(Cc2cnc(NC(=O)c3sc4ccccc4c3Cl)s2)cc1 | 0.652 µM | > 100 µM | 0.222 µM | 12.7 µM | 0.336 µM | > 100 µM | 0.383 µM | > 100 µM | 0.81 µM | > 100 µM | 1.43 µM | > 100 µM | 0.508 µM | > 100 µM | 1.26 µM | > 100 µM | 0.768 µM | > 100 µM | 0.468 µM | > 100 µM |
